Reference: the supplement of paper PMC10307832

Columns and labels:
Test in all cases: relative viability (nuclei count vs DMSO), 5 days (fraction); higher = more cells survive
[1] = compound: C=CCNC1=C2C[C@@H](C)C[C@H](OC)[C@H](O)[C@@H](C)/C=C(\C)[C@H](OC(N)=O)[C@@H](OC)/C=C\C=C(/C)C(=O)NC(=CC1=O)C2=O [17-AAG] + C[C@]1(O)C[C@@H](c2nc(-c3ccc4ccc(-c5ccccc5)nc4c3)c3c(N)nccn32)C1 [Linsitinib] (partner 1 µM)
Procedure, shortened: (§1)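 Relative viability divides the nuclei count in treated wells by that in vehicle wells. Lung cancer cell lines were seeded in 1536-well plates, dosed by pin tool the next day, and fixed and stained after 5 days in one step with final 0.05% Triton X-100, 1% formaldehyde and 1 ug/ml Hoechst. Dosing was a single drug or a fixed anchor-drug dose plus five library-drug doses (not always all listed) in √10 steps, and values are medians of duplicate plates imaged at 4×.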

[2] = compound: C=CCNC1=C2C[C@@H](C)C[C@H](OC)[C@H](O)[C@@H](C)/C=C(\C)[C@H](OC(N)=O)[C@@H](OC)/C=C\C=C(/C)C(=O)NC(=CC1=O)C2=O [17-AAG] + CC1(C)CCC(c2ccc(Cl)cc2)=C(CN2CCN(c3ccc(C(=O)NS(=O)(=O)c4ccc(N[C@H](CCN5CCOCC5)CSc5ccccc5)c(S(=O)(=O)C(F)(F)F)c4)cc3)CC2)C1 [Navitoclax] (partner 0.5 µM)
Procedure, shortened: as §1

[3] = compound: C=CCNC1=C2C[C@@H](C)C[C@H](OC)[C@H](O)[C@@H](C)/C=C(\C)[C@H](OC(N)=O)[C@@H](OC)/C=C\C=C(/C)C(=O)NC(=CC1=O)C2=O [17-AAG] + O=C(CCCCCCC(=O)Nc1ccccc1)NO [Vorinostat] (partner 1 µM)
Procedure, shortened: as §1

[4] = compound: C=CCNC1=C2C[C@@H](C)C[C@H](OC)[C@H](O)[C@@H](C)/C=C(\C)[C@H](OC(N)=O)[C@@H](OC)/C=C\C=C(/C)C(=O)NC(=CC1=O)C2=O [17-AAG] + Cc1nc(NC(=O)N2CCC[C@H]2C(N)=O)sc1-c1ccnc(C(C)(C)C(F)(F)F)c1 [Alpelisib] (partner 2 µM)
Procedure, shortened: as §1

Cell Line	relative viability ([1]; first compound 0.00128 µM)	relative viability ([1]; first compound 0.004048 µM)	relative viability ([1]; first compound 0.0128 µM)	relative viability ([1]; first compound 0.04048 µM)	relative viability ([1]; first compound 0.128 µM)	relative viability ([2]; first compound 0.00128 µM)	relative viability ([2]; first compound 0.004048 µM)	relative viability ([2]; first compound 0.0128 µM)	relative viability ([2]; first compound 0.04048 µM)	relative viability ([2]; first compound 0.128 µM)	relative viability ([3]; first compound 0.00128 µM)	relative viability ([3]; first compound 0.004048 µM)	relative viability ([3]; first compound 0.0128 µM)	relative viability ([3]; first compound 0.04048 µM)	relative viability ([3]; first compound 0.128 µM)	relative viability ([4]; first compound 0.00128 µM)	relative viability ([4]; first compound 0.004048 µM)	relative viability ([4]; first compound 0.0128 µM)	relative viability ([4]; first compound 0.04048 µM)	relative viability ([4]; first compound 0.128 µM)
NCI-H1944	1.25	1.22	1.16	0.872	0.319	1.05	1.05	1.02	0.948	0.372	0.486	0.506	0.397	0.257	0.134	0.883	0.88	0.85	0.682	0.281
UMC-11	0.967	0.943	0.751	0.299	0.178	0.363	0.37	0.304	0.17	0.138	0.467	0.363	0.343	0.229	0.222	1.05	0.855	0.658	0.211	0.129
LU99A	0.484	0.671	0.449	0.24	0.174	0.817	0.821	0.921	0.271	0.132	0.479	0.476	0.301	0.203	0.127	0.564	0.535	0.477	0.4	0.165
A-427	1.12	1.1	1.1	1.1	1.15	0.95	0.946	0.891	0.991	0.986	0.875	0.849	0.867	0.373	0.298	1.05	1.15	1.12	1.1	0.995
COR-L 105	0.834	0.895	1	0.644	0.666	0.936	0.756	0.721	0.604	0.486	0.876	0.983	0.783	0.728	0.439	1.08	0.898	1.19	0.746	0.817
NCI-H460	0.771	0.0998	0.0141	0.0124	0.009	0.986	1.08	0.0303	0.0146	0.0215	0.733	0.41	0.0303	0.0238	0.0231	0.544	0.214	0.0127	0.0124	0.0122
NCI-H2126	0.753	0.688	0.776	0.692	0.373	0.864	0.845	0.878	0.796	0.381	0.865	0.933	0.782	0.199	0.227	0.757	0.792	0.742	0.714	0.303
HCC-44	0.643	0.709	0.686	0.662	0.119	1	0.929	0.897	0.481	0.207	1.17	1.13	1.19	1.09	0.917	0.792	0.742	0.656	0.449	0.138
NCI-H520	0.987	0.856	0.728	0.144	0.122	1.09	0.836	1.03	0.19	0.161	0.75	0.662	0.433	0.174	0.181	0.993	0.838	0.839	0.155	0.132
SW 1573	0.987	0.901	0.647	0.249	0.128	0.704	0.955	0.74	0.142	0.0734	0.782	1.01	0.241	0.128	0.0675	0.817	0.716	0.648	0.158	0.109
NCI-H441	0.679	0.661	0.276	0.174	0.0829	0.527	0.335	0.157	0.262	0.131	0.968	0.996	0.617	0.128	0.121	0.625	0.61	0.236	0.172	0.145
EKVX	1.12	1.08	0.873	0.252	0.122	0.997	0.937	0.934	0.242	0.165	0.783	0.802	0.719	0.423	0.567	0.878	0.944	0.875	0.208	0.163
NCI-H1734	0.87	0.838	0.878	0.308	0.18	0.871	0.811	0.756	0.24	0.114	0.77	0.851	0.574	0.271	0.132	0.708	0.759	0.716	0.289	0.16
NCI-H596	1.12	0.93	0.943	0.82	0.783	1.02	0.91	0.908	0.834	0.518	0.654	0.582	0.692	0.576	0.323	0.479	0.648	0.564	0.454	0.358
EPLC-272H	1.37	1.12	1.21	0.928	0.324	1.11	1.21	1.02	1.06	0.225	0.398	0.426	0.109	0.115	0.0985	1.01	0.934	0.848	0.756	0.266
